From ChEMBL document CHEMBL1649226, “Species identification and antifungal susceptibility patterns of species belonging to Aspergillus section Nigri” (2009)
In brackets after ≈: the same amount, converted by molar mass.

Experiments:
Type in all cases: functional
Aspergillus niger [1] = test: Antifungal activity against Aspergillus niger isolate CM-4213 obtained from respiratory tract infection of patient after 48 hrs by EUCAST broth dilution method; conditions: isolate CM-4213, 48 h
Aspergillus tubingensis [2] = test: Antifungal activity against Aspergillus tubingensis isolate CM-4352 obtained from respiratory tract infection of patient after 48 hrs by EUCAST broth dilution method; conditions: isolate CM-4352, 48 h
Aspergillus tubingensis [3] = test: Antifungal activity against Aspergillus tubingensis isolate CM-4003 after 48 hrs by EUCAST broth dilution method; conditions: isolate CM-4003, 48 h
Aspergillus niger [4] = test: Antifungal activity against Aspergillus niger isolate CM-3236 obtained from respiratory tract infection of patient after 48 hrs by EUCAST broth dilution method; conditions: isolate CM-3236, 48 h
Aspergillus niger [5] = test: Antifungal activity against Aspergillus niger isolate CM-3551 obtained from respiratory tract infection of patient after 48 hrs by EUCAST broth dilution method; conditions: isolate CM-3551, 48 h
Aspergillus tubingensis [6] = test: Antifungal activity against Aspergillus tubingensis isolate CM-4000 after 48 hrs by EUCAST broth dilution method; conditions: isolate CM-4000, 48 h
Aspergillus tubingensis [7] = test: Antifungal activity against Aspergillus tubingensis isolate CM-3125 obtained from respiratory tract infection of patient after 48 hrs by EUCAST broth dilution method; conditions: isolate CM-3125, 48 h
Aspergillus niger [8] = test: Antifungal activity against Aspergillus niger isolate CM-4262 after 48 hrs by EUCAST broth dilution method Ophthalmic; conditions: isolate CM-4262, 48 h
Aspergillus niger [9] = test: Antifungal activity against Aspergillus niger isolate CM-3506 obtained from respiratory tract infection of patient after 48 hrs by EUCAST broth dilution method; conditions: isolate CM-3506, 48 h
Aspergillus tubingensis [10] = test: Antifungal activity against Aspergillus tubingensis isolate CM-3654 obtained from blood culture after 48 hrs by EUCAST broth dilution method; conditions: isolate CM-3654, 48 h
Aspergillus niger [11] = test: Antifungal activity against Aspergillus niger isolate CM-3636 obtained from respiratory tract infection of patient after 48 hrs by EUCAST broth dilution method; conditions: isolate CM-3636, 48 h
Aspergillus tubingensis [12] = test: Antifungal activity against Aspergillus tubingensis isolate CM-3123 obtained from respiratory tract infection of patient after 48 hrs by EUCAST broth dilution method; conditions: isolate CM-3123, 48 h
Aspergillus niger [13] = test: Antifungal activity against Aspergillus niger isolate CM-3586 obtained from catheter of patient after 48 hrs by EUCAST broth dilution method; conditions: isolate CM-3586, 48 h
Aspergillus tubingensis [14] = test: Antifungal activity against Aspergillus tubingensis isolate CM-4296 obtained from respiratory tract infection of patient after 48 hrs by EUCAST broth dilution method; conditions: isolate CM-4296, 48 h
Aspergillus tubingensis [15] = test: Antifungal activity against Aspergillus tubingensis isolate CM-4897 obtained from blood culture after 48 hrs by EUCAST broth dilution method; conditions: isolate CM-4897, 48 h
Aspergillus tubingensis [16] = test: Antifungal activity against Aspergillus tubingensis isolate CM-3507 obtained from respiratory tract infection of patient after 48 hrs by EUCAST broth dilution method; conditions: isolate CM-3507, 48 h
Aspergillus tubingensis [17] = test: Antifungal activity against Aspergillus tubingensis isolate CM-5094 obtained from respiratory tract infection of patient after 48 hrs by EUCAST broth dilution method; conditions: isolate CM-5094, 48 h
Aspergillus foetidus [18] = test: Antifungal activity against Aspergillus foetidus isolate CM-4002 after 48 hrs by EUCAST broth dilution method; conditions: isolate CM-4002, 48 h
Aspergillus foetidus [19] = test: Antifungal activity against Aspergillus foetidus isolate CM-4995 obtained from prosthesis after 48 hrs by EUCAST broth dilution method; conditions: isolate CM-4995, 48 h
Aspergillus tubingensis [20] = test: Antifungal activity against Aspergillus tubingensis isolate CM-3585 after 48 hrs by EUCAST broth dilution method; conditions: isolate CM-3585, 48 h
Aspergillus tubingensis [21] = test: Antifungal activity against Aspergillus tubingensis isolate CM-4688 obtained from respiratory tract infection of patient after 48 hrs by EUCAST broth dilution method; conditions: isolate CM-4688, 48 h
Aspergillus tubingensis [22] = test: Antifungal activity against Aspergillus tubingensis isolate CM-4264 obtained from blood culture after 48 hrs by EUCAST broth dilution method; conditions: isolate CM-4264, 48 h
Aspergillus tubingensis [23] = test: Antifungal activity against Aspergillus tubingensis isolate CM-4001 after 48 hrs by EUCAST broth dilution method; conditions: isolate CM-4001, 48 h
Aspergillus tubingensis [24] = test: Antifungal activity against Aspergillus tubingensis isolate CM-3177 obtained from respiratory tract infection of patient after 48 hrs by EUCAST broth dilution method; conditions: isolate CM-3177, 48 h
Aspergillus niger [25] = test: Antifungal activity against Aspergillus niger isolate CM-4004 obtained from after 48 hrs by EUCAST broth dilution method; conditions: isolate CM-4004, 48 h
Aspergillus tubingensis [26] = test: Antifungal activity against Aspergillus tubingensis isolate CM-3810 obtained from respiratory tract infection of patient after 48 hrs by EUCAST broth dilution method; conditions: isolate CM-3810, 48 h
Aspergillus foetidus [27] = test: Antifungal activity against Aspergillus foetidus isolate CM-5264 obtained from respiratory tract infection of patient after 48 hrs by EUCAST broth dilution method; conditions: isolate CM-5264, 48 h
Aspergillus niger [28] = test: Antifungal activity against Aspergillus niger isolate CM-3641 obtained from respiratory tract infection of patient after 48 hrs by EUCAST broth dilution method; conditions: isolate CM-3641, 48 h
Aspergillus tubingensis [29] = test: Antifungal activity against Aspergillus tubingensis isolate CM-4005 after 48 hrs by EUCAST broth dilution method; conditions: isolate CM-4005, 48 h
Aspergillus niger [30] = test: Antifungal activity against Aspergillus niger isolate CM-5095 obtained from respiratory tract infection of patient after 48 hrs by EUCAST broth dilution method; conditions: isolate CM-5095, 48 h
Aspergillus niger [31] = test: Antifungal activity against Aspergillus niger isolate CM-4316 obtained from respiratory tract infection of patient after 48 hrs by EUCAST broth dilution method; conditions: isolate CM-4316, 48 h
Aspergillus tubingensis [32] = test: Antifungal activity against Aspergillus tubingensis isolate CM-4899 obtained from respiratory tract infection of patient after 48 hrs by EUCAST broth dilution method; conditions: isolate CM-4899, 48 h
Aspergillus niger [33] = test: Antifungal activity against Aspergillus niger isolate CM-3672 obtained from cutaneous layer of patient after 48 hrs by EUCAST broth dilution method; conditions: isolate CM-3672, 48 h
Aspergillus niger [34] = test: Antifungal activity against Aspergillus niger isolate CM-3257 obtained from respiratory tract infection of patient after 48 hrs by EUCAST broth dilution method; conditions: isolate CM-3257, 48 h

| Structure (SMILES) | MIC (Aspergillus niger [1]) | MIC (Aspergillus tubingensis [2]) | MIC (Aspergillus tubingensis [3]) | MIC (Aspergillus niger [4]) | MIC (Aspergillus niger [5]) | MIC (Aspergillus tubingensis [6]) | MIC (Aspergillus tubingensis [7]) | MIC (Aspergillus niger [8]) | MIC (Aspergillus niger [9]) | MIC (Aspergillus tubingensis [10]) | MIC (Aspergillus niger [11]) | MIC (Aspergillus tubingensis [12]) | MIC (Aspergillus niger [13]) | MIC (Aspergillus tubingensis [14]) | MIC (Aspergillus tubingensis [15]) | MIC (Aspergillus tubingensis [16]) | MIC (Aspergillus tubingensis [17]) | MIC (Aspergillus foetidus [18]) | MIC (Aspergillus foetidus [19]) | MIC (Aspergillus tubingensis [20]) | further results |
| --- | --- | --- | --- | --- | --- | --- | --- | --- | --- | --- | --- | --- | --- | --- | --- | --- | --- | --- | --- | --- | --- |
| CCC(C)n1ncn(-c2ccc(N3CCN(c4ccc(OCC5COC(Cn6cncn6)(c6ccc(Cl)cc6Cl)O5)cc4)CC3)cc2)c1=O (stereo not drawn) [ITRACONAZOLE] | 0.14 µg/mL (≈ 0.198 µM) | 1 µg/mL (≈ 1.42 µM) | 16 µg/mL (≈ 22.7 µM) | 0.5 µg/mL (≈ 0.709 µM) | 4.75 µg/mL (≈ 6.73 µM) | 1 µg/mL (≈ 1.42 µM) | 0.5 µg/mL (≈ 0.709 µM) | 1 µg/mL (≈ 1.42 µM) | 0.5 µg/mL (≈ 0.709 µM) | 1 µg/mL (≈ 1.42 µM) | 0.5 µg/mL (≈ 0.709 µM) | 11 µg/mL (≈ 15.6 µM) | 0.5 µg/mL (≈ 0.709 µM) | 0.75 µg/mL (≈ 1.06 µM) | 1 µg/mL (≈ 1.42 µM) | 0.5 µg/mL (≈ 0.709 µM) | 0.5 µg/mL (≈ 0.709 µM) | 1 µg/mL (≈ 1.42 µM) | 1 µg/mL (≈ 1.42 µM) | 0.5 µg/mL (≈ 0.709 µM) | MIC (Aspergillus tubingensis [21]): 3.67 µg/mL (≈ 5.2 µM); MIC (Aspergillus tubingensis [22]): 0.5 µg/mL (≈ 0.709 µM); MIC (Aspergillus tubingensis [23]): 1 µg/mL (≈ 1.42 µM); MIC (Aspergillus tubingensis [24]): 1 µg/mL (≈ 1.42 µM); MIC (Aspergillus niger [25]): 1 µg/mL (≈ 1.42 µM); MIC (Aspergillus tubingensis [26]): 4 µg/mL (≈ 5.67 µM); MIC (Aspergillus foetidus [27]): 16 µg/mL (≈ 22.7 µM); MIC (Aspergillus niger [28]): 0.5 µg/mL (≈ 0.709 µM); MIC (Aspergillus tubingensis [29]): 16 µg/mL (≈ 22.7 µM); MIC (Aspergillus niger [30]): 0.5 µg/mL (≈ 0.709 µM); MIC (Aspergillus niger [31]): 0.5 µg/mL (≈ 0.709 µM); MIC (Aspergillus tubingensis [32]): 1 µg/mL (≈ 1.42 µM); MIC (Aspergillus niger [33]): 0.5 µg/mL (≈ 0.709 µM); MIC (Aspergillus niger [34]): 1 µg/mL (≈ 1.42 µM) |
| CC[C@@H]([C@H](C)O)n1ncn(-c2ccc(N3CCN(c4ccc(OC[C@@H]5CO[C@@](Cn6cncn6)(c6ccc(F)cc6F)C5)cc4)CC3)cc2)c1=O [POSACONAZOLE] | 0.03 µg/mL (≈ 0.0428 µM) | 0.25 µg/mL (≈ 0.357 µM) | 0.25 µg/mL (≈ 0.357 µM) | 0.12 µg/mL (≈ 0.171 µM) | 0.12 µg/mL (≈ 0.171 µM) | 0.25 µg/mL (≈ 0.357 µM) | 0.12 µg/mL (≈ 0.171 µM) | 0.25 µg/mL (≈ 0.357 µM) | 0.12 µg/mL (≈ 0.171 µM) | 0.25 µg/mL (≈ 0.357 µM) | 0.19 µg/mL (≈ 0.271 µM) | 0.25 µg/mL (≈ 0.357 µM) | 0.12 µg/mL (≈ 0.171 µM) | 0.19 µg/mL (≈ 0.271 µM) | 0.25 µg/mL (≈ 0.357 µM) | 0.15 µg/mL (≈ 0.214 µM) | 0.06 µg/mL (≈ 0.0856 µM) | 0.12 µg/mL (≈ 0.171 µM) | 0.16 µg/mL (≈ 0.228 µM) | 0.12 µg/mL (≈ 0.171 µM) | MIC (Aspergillus tubingensis [21]): 0.25 µg/mL (≈ 0.357 µM); MIC (Aspergillus tubingensis [22]): 0.12 µg/mL (≈ 0.171 µM); MIC (Aspergillus tubingensis [23]): 0.25 µg/mL (≈ 0.357 µM); MIC (Aspergillus tubingensis [24]): 0.25 µg/mL (≈ 0.357 µM); MIC (Aspergillus niger [25]): 0.25 µg/mL (≈ 0.357 µM); MIC (Aspergillus tubingensis [26]): 0.12 µg/mL (≈ 0.171 µM); MIC (Aspergillus foetidus [27]): 0.5 µg/mL (≈ 0.713 µM); MIC (Aspergillus niger [28]): 0.125 µg/mL (≈ 0.178 µM); MIC (Aspergillus tubingensis [29]): 0.5 µg/mL (≈ 0.713 µM); MIC (Aspergillus niger [30]): 0.12 µg/mL (≈ 0.171 µM); MIC (Aspergillus niger [31]): 0.125 µg/mL (≈ 0.178 µM); MIC (Aspergillus tubingensis [32]): 0.25 µg/mL (≈ 0.357 µM); MIC (Aspergillus niger [33]): 0.19 µg/mL (≈ 0.271 µM); MIC (Aspergillus niger [34]): 0.25 µg/mL (≈ 0.357 µM) |
